For orientation: mass density means the mass of a sample divided by its volume.

Molecules are shown by their SMILES. Numbers after ± are expanded uncertainties.

In the NIST ThermoML archive (doi:10.1021/acs.jced.5b00932) one finds mass density data, which are given here for 3 molecules.

The nature of this data set: wn = mass fraction of the nth substance listed. The conditions noted are these: 298.15 K, 101 kPa, Liquid, Pycnometric method.

In the case of `[Cl][Fe]([Cl])[Cl]` [ferric chloride] + O, under “w1 = 0.5069”, the mass density turned out to be 1521.5 ± 3.3 kg/m3.
With `[Ca+2].[Cl-].[Cl-]` [calcium chloride] + O, the mass density (w1 = 0.4647) is recorded as 1456.1 ± 2.3 kg/m3.
For the molecule `[Cl][Al]([Cl])[Cl]` [aluminum chloride] + O, the mass density (w1 = 0.3108) was 1314.6 ± 2.2 kg/m3.
